According to publication PMC9919951, “Ellagic Acid and Its Metabolites as Potent and Selective Allosteric Inhibitors of Liver Pyruvate Kinase” (Nutrients, 2023):
Entries after “also recorded” stand apart in the source; their conditions may differ. Values belong to the molecule of their own block, whether it stands above or below them.

Key:
[1] = molecular target: T1, PKL (Homo sapiens, UniProt P30613); assay: In vitro pyruvate kinase assay (Kinase-Glo Max luminescence), PKL; assay type: biochemical; settings: for PKL IC50: 0.1 mM ADP, 0.125 mM PEP, rt 30 min, Inactive = less than 30% inhibition at 10 µM; for Change of PKL inhibitory activity relative to Uro D (5): removal of one hydroxyl group from 5
T1 construct: purchased BPS Bioscience
T1 sequence (P30613 1-543 isoform P30613-2): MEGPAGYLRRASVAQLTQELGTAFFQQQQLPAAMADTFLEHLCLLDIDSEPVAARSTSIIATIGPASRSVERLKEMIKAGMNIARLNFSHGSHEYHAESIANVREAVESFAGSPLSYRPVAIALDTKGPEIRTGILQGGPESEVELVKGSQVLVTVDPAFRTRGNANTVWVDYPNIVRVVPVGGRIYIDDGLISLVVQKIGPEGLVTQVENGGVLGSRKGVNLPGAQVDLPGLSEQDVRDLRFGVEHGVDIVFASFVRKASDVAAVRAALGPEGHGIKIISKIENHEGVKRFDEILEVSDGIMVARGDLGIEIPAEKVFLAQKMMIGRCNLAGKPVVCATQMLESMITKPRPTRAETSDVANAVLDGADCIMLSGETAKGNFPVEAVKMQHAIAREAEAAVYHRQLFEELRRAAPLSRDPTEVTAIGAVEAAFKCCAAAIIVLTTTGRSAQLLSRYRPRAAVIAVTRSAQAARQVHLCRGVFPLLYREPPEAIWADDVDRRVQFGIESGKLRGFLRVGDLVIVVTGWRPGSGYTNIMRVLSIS
Description: (§1) In the absence of the compound, the intensity (Ce) in each data set was defined as 100% activity.

[2] = molecular target: T2, PKR (Homo sapiens, UniProt P30613); assay: In vitro pyruvate kinase assay (Kinase-Glo Max luminescence), PKR; assay type: biochemical; settings: for PKR IC50: 0.1 mM ADP, 0.125 mM PEP, rt 30 min, Inactive = less than 30% inhibition at 10 µM
T2 construct: purchased BPS Bioscience
T2 sequence (P30613 whole entry): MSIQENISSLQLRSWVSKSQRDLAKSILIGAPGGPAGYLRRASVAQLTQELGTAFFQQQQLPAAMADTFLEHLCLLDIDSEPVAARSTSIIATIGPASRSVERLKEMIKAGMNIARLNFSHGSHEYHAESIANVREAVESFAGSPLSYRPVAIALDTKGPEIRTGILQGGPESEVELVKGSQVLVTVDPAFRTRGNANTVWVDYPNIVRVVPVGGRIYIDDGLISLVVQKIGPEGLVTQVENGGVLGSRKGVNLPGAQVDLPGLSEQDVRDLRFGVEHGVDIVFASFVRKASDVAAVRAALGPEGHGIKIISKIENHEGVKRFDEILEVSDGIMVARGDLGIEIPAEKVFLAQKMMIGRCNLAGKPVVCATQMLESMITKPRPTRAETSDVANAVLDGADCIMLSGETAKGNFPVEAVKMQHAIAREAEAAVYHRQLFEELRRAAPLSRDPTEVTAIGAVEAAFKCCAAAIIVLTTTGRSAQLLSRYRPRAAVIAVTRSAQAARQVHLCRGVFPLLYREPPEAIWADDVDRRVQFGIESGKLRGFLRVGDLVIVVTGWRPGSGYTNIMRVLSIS
Description: as §1

[3] = molecular target: PKM1 (Homo sapiens, UniProt P14618); assay: In vitro pyruvate kinase assay, PKM1; assay type: biochemical
Sequence of PKM1 (P14618 1-531 isoform P14618-2): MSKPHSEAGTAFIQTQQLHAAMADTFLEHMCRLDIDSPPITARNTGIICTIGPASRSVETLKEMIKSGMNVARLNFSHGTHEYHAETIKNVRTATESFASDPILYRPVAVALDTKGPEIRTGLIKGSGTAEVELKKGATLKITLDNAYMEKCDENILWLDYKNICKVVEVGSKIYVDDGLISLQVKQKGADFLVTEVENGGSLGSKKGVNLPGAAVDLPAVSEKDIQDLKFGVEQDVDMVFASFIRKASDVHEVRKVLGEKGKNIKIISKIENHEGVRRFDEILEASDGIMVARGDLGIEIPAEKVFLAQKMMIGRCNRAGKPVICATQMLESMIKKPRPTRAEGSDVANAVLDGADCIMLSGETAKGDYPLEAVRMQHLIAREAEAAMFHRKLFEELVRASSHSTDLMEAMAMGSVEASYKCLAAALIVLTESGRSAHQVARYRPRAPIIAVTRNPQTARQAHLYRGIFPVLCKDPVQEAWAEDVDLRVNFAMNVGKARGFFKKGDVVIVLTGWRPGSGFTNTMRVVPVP
Description: as §1

[4] = molecular target: PKM2 (Homo sapiens, UniProt P14618); assay: In vitro pyruvate kinase assay, PKM2; assay type: biochemical; settings: printed in the PKM2 IC50 column; footnote a: value refers to EC50; read-out: PKM2 EC50 (compound behaves as an activator)
Sequence of PKM2 (P14618 whole entry): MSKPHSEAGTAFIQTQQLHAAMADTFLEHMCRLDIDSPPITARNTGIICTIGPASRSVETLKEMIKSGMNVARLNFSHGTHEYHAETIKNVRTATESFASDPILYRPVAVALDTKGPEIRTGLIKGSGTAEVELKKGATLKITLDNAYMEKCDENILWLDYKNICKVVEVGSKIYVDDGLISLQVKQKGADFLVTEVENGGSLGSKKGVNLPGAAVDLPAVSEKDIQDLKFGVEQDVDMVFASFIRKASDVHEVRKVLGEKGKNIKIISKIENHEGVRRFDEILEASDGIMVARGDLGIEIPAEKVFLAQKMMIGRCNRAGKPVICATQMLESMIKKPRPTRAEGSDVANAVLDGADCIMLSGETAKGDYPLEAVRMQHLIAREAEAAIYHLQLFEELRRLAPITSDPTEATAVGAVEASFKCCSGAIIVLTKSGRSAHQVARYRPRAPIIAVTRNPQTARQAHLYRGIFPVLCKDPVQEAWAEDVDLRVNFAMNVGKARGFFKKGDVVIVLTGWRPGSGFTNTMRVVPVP
Description: as §1

IC50 [1]: 32 nM
Mode of PKL inhibition ([1]; different concentrations of ADP, activity independent of substrate concentration): non-competitive allosteric inhibitor
IC50 [2]: 4700 nM
IC50 [3]: 81000 nM
EC50 [4]: 70 nM
Structure (SMILES): O=c1oc2c(O)c(O)cc3c(=O)oc4c(O)c(O)cc1c4c23 [Compound 1, ellagic acid]

IC50 [1]: 12000 nM
IC50 [2]: > 100000 nM
Structure (SMILES): O=c1cc(-c2ccc(O)c(O)c2)oc2cc(O)cc(O)c12 [Compound 2, luteolin]

IC50 [1]: 2100 nM
IC50 [2]: 7400 nM
Structure (SMILES): Oc1cc(O)c2cc(O)c(-c3ccc(O)c(O)c3)[o+]c2c1 [Compound 3, cyanidin]

IC50 [1]: 28 nM
IC50 [2]: 1270 nM
IC50 [3]: 36000 nM
EC50 [4]: 30 nM
Structure (SMILES): O=c1oc2c(O)c(O)ccc2c2cc(O)c(O)cc12 [Compound 5, urolithin D]

PKL IC50 [1]: Inactive ^b
PKR IC50 [2]: Inactive ^b
melting point: 265 to 267 °C
Structure (SMILES): O=c1occc2cc(O)c(O)cc12 [Compound 6, 6,7-dihydroxy-1H-isochromen-1-one]

PKL IC50 [1]: Inactive ^b
PKR IC50 [2]: Inactive ^b
Structure (SMILES): O=c1ccc2ccc(O)c(O)c2o1 [Compound 7]

IC50 [1]: 3500 nM
IC50 [2]: 12000 nM
melting point: > 350 °C
Structure (SMILES): Oc1ccc(-c2ccc(O)c(O)c2O)c(O)c1O [Compound 8, [1,1’-Biphenyl]-2,2’,3,3’,4,4’-hexaol]

IC50 [1]: 2400 nM
IC50 [2]: 5100 nM
Structure (SMILES): Oc1ccc(-c2ccc(O)c(O)c2)cc1O [Compound 9, [1,1’-biphenyl]-3,3’,4,4’-tetraol]

IC50 [1]: 410 nM
IC50 [2]: 2600 nM
Structure (SMILES): O=c1oc2cc(O)ccc2c2cc(O)c(O)cc12 [Compound 10, 3,8,9-trihydroxy-6H-benzo[c]chromen-6-one]
Change of PKL inhibitory activity relative to Uro D (5) [1]: reduced by approximately one order of magnitude

PKR IC50 [2]: Inactive ^b
Structure (SMILES): O=c1oc2cc(O)ccc2c2ccc(O)cc12 [Compound 11, Urolithin A]
PKL IC50 [1]: no inhibition was observed; also recorded: Inactive ^b

PKR IC50 [2]: Inactive ^b
Structure (SMILES): O=c1oc2cc(O)ccc2c2ccccc12 [Compound 12, Urolithin B]
PKL IC50 [1]: no inhibition was observed; also recorded: Inactive ^b

IC50 [1]: 3900 nM
Change of PKL inhibitory activity relative to Uro D (5) [1]: hundred-fold reduction in activity
IC50 [2]: 43000 nM
melting point: 345 to 347 °C
Structure (SMILES): O=c1oc2c(O)cccc2c2cc(O)c(O)cc12 [Compound 13, 4,8,9-Trihydroxy-6H-benzo[c]chromen-6-one]

IC50 [1]: 2100 nM
IC50 [2]: 68000 nM
Structure (SMILES): O=c1oc2c(O)c(O)ccc2c2cc(O)ccc12 [Compound 14, 3,4,9-Trihydroxy-6H-benzo[c]chromen-6-one]

IC50 [1]: 1700 nM
Change of PKL inhibitory activity relative to Uro D (5) [1]: dramatically reduced inhibitory activity
IC50 [2]: > 100000 nM
Structure (SMILES): O=c1oc2c(O)c(O)ccc2c2ccc(O)cc12 [Compound 15, 3,4,8-Trihydroxy-6H-benzo[c]chromen-6-one]

EC50 ([1]; printed in the PKL IC50 column, footnote a: value refers to EC50, read-out: PKL EC50 (compound behaves as an activator)): 20 nM
EC50 ([2]; printed in the PKR IC50 column, footnote a: value refers to EC50, read-out: PKR EC50 (compound behaves as an activator)): 10 nM
PKM1 IC50 [3]: Inactive
EC50 [4]: 50 nM
Structure (SMILES): O=C(COP(=O)(O)O)[C@@H](O)[C@H](O)[C@H](O)COP(=O)(O)O [FBP, Fructose-1,6-biphosphate, reference compound]
